The record followed here is patent US7799757B2, “Analogs of parathyroid hormone and PTH-related protein as bone anabolic agents” (priority 2002, dated 2010).

Assay [1] deals with T1, recombinant hPTH1-receptor (Homo sapiens, UniProt Q03431).
T1 construct: expressed in transfected cells
T1 sequence (Q03431 27-593): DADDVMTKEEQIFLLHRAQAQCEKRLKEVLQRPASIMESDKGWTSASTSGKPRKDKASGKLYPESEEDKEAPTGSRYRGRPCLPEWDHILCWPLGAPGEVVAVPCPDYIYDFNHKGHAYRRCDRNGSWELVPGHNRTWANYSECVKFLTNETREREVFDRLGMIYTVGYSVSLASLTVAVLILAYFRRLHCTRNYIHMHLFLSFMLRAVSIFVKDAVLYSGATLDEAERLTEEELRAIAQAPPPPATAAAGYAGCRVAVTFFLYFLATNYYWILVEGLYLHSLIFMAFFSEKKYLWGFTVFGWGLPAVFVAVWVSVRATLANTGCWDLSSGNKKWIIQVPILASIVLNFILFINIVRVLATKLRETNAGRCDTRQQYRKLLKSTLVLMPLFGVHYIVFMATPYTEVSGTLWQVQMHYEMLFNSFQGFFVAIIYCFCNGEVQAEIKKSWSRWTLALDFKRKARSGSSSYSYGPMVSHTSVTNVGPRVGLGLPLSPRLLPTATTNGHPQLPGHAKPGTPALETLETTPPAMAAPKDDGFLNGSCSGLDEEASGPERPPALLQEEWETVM
In words: Radioreceptor competition binding, 125I-PTH(1-34), HEK293/C21 cells. As to conditions: 125I-PTH(1-34) ~0.1 nM, 2 h at room temperature. Here is the method:
(§1) Human embryonic kidney (HEK293) cells, stably transfected with recombinant hPTH1-receptor (HEK293/C21 cell line, ˜400,000 receptors/cell) (Pines, M., Adams, A. E., Stueckle, S., Bessalle, R., Rashti-Behar, V., Chorev, M., Rosenblatt, M., and Suva, L. J. Endocrinology 1994, 135, 1713-1716), were maintained in D-MEM medium supplemented with 10% fetal bovine serum and […] glutamine at 37° C. in a humidified atmosphere of 95% air/5% CO2. The medium was changed every 3-4 days, and the cells were subcultured every week. Ligand stimulated adenylyl cyclase activity and radioreceptor competition binding assays were performed on confluent cultures, 1-3 days after a change of medium.
[Nle^8,18,Nal^23,Tyr^34]bPTH(1-34)-NH2 was radioiodinated and the crude material was purified as previously described (Roubini, E., Duong, L. T., Gibbons, S. W., Leu, C. T., Caulfield, M. P., Chorev, M., and Rosenblatt, M. Biochemistry 1992, 31, 4026-4033). […] The pure mono-radioiodinated peptide was isolated on an analytical RP-HPLC Vydac Protein C18 column (The Separation Group, Hesperia, Calif.) employing a linear gradient of 36-42% B in A for 30 min (A, 0.1% TFA in water; B, 0.1% TFA in acetonitrile) at a flow rate of 1 mL/min, and monitored at 220 nm. […]

The target in assay [2] is T1, recombinant hPTH1-receptor. Nature of the assay: Stimulation of adenylyl cyclase activity in HEK293/C21 cells. To be noted: 1 mM IBMX, 5 min incubation, read-out: EC50 (half maximal stimulation of adenylate cyclase). The format is cell-based. Here is the method: as §1
Stimulation of adenylyl cyclase activity by the PTH(1-34) analogues was assayed in stably transfected HEK293/C21 as described before (Nakamoto, C., Behar, V., Chin, K. R., Adams, A. E.; Suva, L. J.; Rosenblatt, M.; Chorev, M. Biochemistry 1995, 34, 10546-10552.). Shortly, cells were grown to confluence in 24-well culture dishes. They were then incubated with 0.5 μCi [^3H]adenine in fresh PBS supplemented medium at 37° C. for 2 h and further treated with 1 mM 3-isobutyl-1-methylxantine (IBMX) in fresh medium for 15 min at 37° C. […] Radioactivity was measured in a liquid scintillation counter (Beciman LS6000IC liquid scintillation counter, Downers Grove, Ill.).

Non-standard residues stand in square brackets, D forms with d. Residues, ends and D or L forms follow the SMILES beside them. 2Nal = N[C@@H](Cc1ccc2ccccc2c1)C(=O)O; Nle = CCCC[C@H](N)C(=O)O; βAla = NCCC(=O)O

`CCCC[C@H](NC(=O)[C@H](Cc1ccccc1)NC(=O)[C@H](CCC(N)=O)NC(=O)[C@@H](NC(=O)[C@H](CCC(=O)O)NC(=O)[C@H](CO)NC(=O)[C@@H](NC(=O)[C@H](C)N)C(C)C)[C@@H](C)CC)C(=O)N[C@@H](Cc1c[nH]cn1)C(=O)N[C@@H](CC(N)=O)C(=O)N[C@@H](CC(C)C)C(=O)NCC(=O)N[C@@H](CCCCN)C(=O)N[C@@H](Cc1c[nH]cn1)C(=O)N[C@@H](CC(C)C)C(=O)N[C@@H](CO)C(=O)N[C@@H](CO)C(=O)NCCC(=O)NCCC(=O)N[C@@H](CCCNC(=N)N)C(=O)N[C@H](C(=O)N[C@@H](CCC(=O)O)C(=O)N[C@@H](Cc1ccc2ccccc2c1)C(=O)N[C@@H](CC(C)C)C(=O)N[C@@H](CCCNC(=N)N)C(=O)N[C@@H](CCCCN)C(=O)N[C@@H](CCCCN)C(=O)N[C@@H](CC(C)C)C(=O)N[C@@H](CCC(N)=O)C(=O)N[C@@H](CC(=O)O)C(=O)N[C@H](C(=O)N[C@@H](Cc1c[nH]cn1)C(=O)N[C@@H](CC(N)=O)C(=O)N[C@@H](Cc1ccc(O)cc1)C(N)=O)C(C)C)C(C)C` [SEQ ID NO: 14, [Nle^8,β-Ala^18,19,Nal^23,Tyr^34]bPTH(1–34)NH2] (H-AVSEIQF[Nle]HNLGKHLSS[βAla][βAla]RVE[2Nal]LRKKLQDVHNY-NH2; N-terminus assumed): in assay [1], the IC50 was greater than 1 µM. For the same compound, the EC50 in assay [2] turned out to be 0.01382 ± 2e-05 µM.
